Test results: PubChem BioAssay (NCI)
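Assay format: 96-well plates, 48-hour exposure. At the GI50, growth is halved. Definition used: TGI = concentration required for complete inhibition of growth.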

What was measured:
Assay in all cases: growth of human tumour cells (NCI), 48 h
T-47D breast = system: T-47D breast
NCI-H226 lung = system: NCI-H226 lung
786-0 renal = system: 786-0 renal
MOLT-4 leukemia = system: MOLT-4 leukemia
SK-MEL-28 melanoma = system: SK-MEL-28 melanoma
IGROV1 ovarian = system: IGROV1 ovarian
MALME-3M melanoma = system: MALME-3M melanoma
BT-549 breast = system: BT-549 breast
PC-3 prostate = system: PC-3 prostate
HOP-92 NSCLC = system: HOP-92 NSCLC
MDA-MB-435 = system: MDA-MB-435
HCT-116 colon = system: HCT-116 colon
M14 melanoma = system: M14 melanoma
HCC-2998 colon = system: HCC-2998 colon
SNB-19 CNS = system: SNB-19 CNS
UO-31 renal = system: UO-31 renal
SK-OV-3 ovarian = system: SK-OV-3 ovarian
CCRF-CEM leukemia = system: CCRF-CEM leukemia
DU-145 prostate = system: DU-145 prostate
A549 NSCLC = system: A549 NSCLC
LOX IMVI melanoma = system: LOX IMVI melanoma
K-562 leukemia = system: K-562 leukemia
OVCAR-4 ovarian = system: OVCAR-4 ovarian
SF-539 CNS = system: SF-539 CNS
A498 renal = system: A498 renal
NCI-H23 lung = system: NCI-H23 lung
CAKI-1 renal = system: CAKI-1 renal
NCI-H460 lung = system: NCI-H460 lung
RPMI-8226 leukemia = system: RPMI-8226 leukemia
MCF7 breast = system: MCF7 breast
UACC-62 melanoma = system: UACC-62 melanoma
SF-268 CNS = system: SF-268 CNS
NCI-H522 lung = system: NCI-H522 lung
OVCAR-5 ovarian = system: OVCAR-5 ovarian
KM12 colon = system: KM12 colon
NCI/ADR-RES ovarian = system: NCI/ADR-RES ovarian
RXF 393 renal = system: RXF 393 renal
SW-620 colon = system: SW-620 colon
SK-MEL-2 melanoma = system: SK-MEL-2 melanoma
HCT-15 colon = system: HCT-15 colon
SK-MEL-5 melanoma = system: SK-MEL-5 melanoma
HOP-62 NSCLC = system: HOP-62 NSCLC
SF-295 CNS = system: SF-295 CNS
SR leukemia = system: SR leukemia
COLO 205 colon = system: COLO 205 colon
HS 578T breast = system: HS 578T breast
OVCAR-3 ovarian = system: OVCAR-3 ovarian
SN12C renal = system: SN12C renal
MDA-MB-231 breast = system: MDA-MB-231 breast
SNB-75 CNS = system: SNB-75 CNS
HL-60(TB) leukemia = system: HL-60(TB) leukemia
OVCAR-8 ovarian = system: OVCAR-8 ovarian
HT29 colon = system: HT29 colon
U251 CNS = system: U251 CNS
TK-10 renal = system: TK-10 renal
ACHN renal = system: ACHN renal

In the case of `O=C(Nc1ccc2[nH]c3ccccc3c2c1)c1ccccc1Cl`, the GI50 (T-47D breast) is reported as 8.21 µM, the TGI (T-47D breast) is reported as greater than 100 µM and the GI50 (NCI-H226 lung) is reported as 5.53 µM. It also gave a TGI (NCI-H226 lung) greater than 100 µM, a GI50 (786-0 renal) of 4.05 µM and a TGI (786-0 renal) of 51 µM. For the same molecule, the GI50 (MOLT-4 leukemia) was 5.86 µM, the TGI (MOLT-4 leukemia) was greater than 100 µM and the GI50 (SK-MEL-28 melanoma) was 5.95 µM. For the same molecule, the TGI (SK-MEL-28 melanoma) was greater than 100 µM, the GI50 (IGROV1 ovarian) was 8.85 µM and the TGI (IGROV1 ovarian) was greater than 100 µM. It also gave a GI50 (MALME-3M melanoma) of 4.64 µM, a TGI (MALME-3M melanoma) greater than 100 µM and a GI50 (BT-549 breast) of 5.63 µM. For the same molecule, the TGI (BT-549 breast) was greater than 100 µM, the GI50 (PC-3 prostate) was 3.31 µM and the TGI (PC-3 prostate) was greater than 100 µM. It also gave a GI50 (HOP-92 NSCLC) of 2.84 µM, a TGI (HOP-92 NSCLC) greater than 100 µM and a GI50 (MDA-MB-435) of 0.969 µM. The TGI (MDA-MB-435) was greater than 100 µM, the GI50 (HCT-116 colon) was 4.86 µM and the TGI (HCT-116 colon) was greater than 100 µM. For the same molecule, the GI50 (M14 melanoma) was 3.81 µM, the TGI (M14 melanoma) was greater than 100 µM and the GI50 (HCC-2998 colon) was 3.84 µM. For the same molecule, the TGI (HCC-2998 colon) was 18.5 µM, the GI50 (SNB-19 CNS) was 8.16 µM and the TGI (SNB-19 CNS) was greater than 100 µM. It also gave a GI50 (UO-31 renal) of 5.2 µM, a TGI (UO-31 renal) greater than 100 µM and a GI50 (SK-OV-3 ovarian) of 8.46 µM. It also gave a TGI (SK-OV-3 ovarian) greater than 100 µM, a GI50 (CCRF-CEM leukemia) of 3.7 µM and a TGI (CCRF-CEM leukemia) greater than 100 µM. For the same molecule, the GI50 (DU-145 prostate) was 6.09 µM, the TGI (DU-145 prostate) was greater than 100 µM and the GI50 (A549 NSCLC) was 4.32 µM. For the same molecule, the TGI (A549 NSCLC) was greater than 100 µM, the GI50 (LOX IMVI melanoma) was 3.41 µM and the TGI (LOX IMVI melanoma) was 39 µM. It also gave a GI50 (K-562 leukemia) of 2.63 µM, a TGI (K-562 leukemia) greater than 100 µM and a GI50 (OVCAR-4 ovarian) of 6.83 µM. The TGI (OVCAR-4 ovarian) was greater than 100 µM, the GI50 (SF-539 CNS) was 2.49 µM and the TGI (SF-539 CNS) was 7.22 µM. The GI50 (A498 renal) was 2.32 µM, the TGI (A498 renal) was 9.19 µM and the GI50 (NCI-H23 lung) was 12.2 µM. It also gave a TGI (NCI-H23 lung) greater than 100 µM, a GI50 (CAKI-1 renal) of 3.47 µM and a TGI (CAKI-1 renal) greater than 100 µM. For the same molecule, the GI50 (NCI-H460 lung) was 3.75 µM, the TGI (NCI-H460 lung) was greater than 100 µM and the GI50 (RPMI-8226 leukemia) was 4.42 µM. It also gave a TGI (RPMI-8226 leukemia) greater than 100 µM, a GI50 (MCF7 breast) of 3.57 µM and a TGI (MCF7 breast) greater than 100 µM. The GI50 (UACC-62 melanoma) was 6.53 µM, the TGI (UACC-62 melanoma) was greater than 100 µM and the GI50 (SF-268 CNS) was 6.77 µM. It also gave a TGI (SF-268 CNS) greater than 100 µM, a GI50 (NCI-H522 lung) of 2.92 µM and a TGI (NCI-H522 lung) of 9.66 µM. For the same molecule, the GI50 (OVCAR-5 ovarian) was 10.3 µM, the TGI (OVCAR-5 ovarian) was greater than 100 µM and the GI50 (KM12 colon) was 2.32 µM. The TGI (KM12 colon) was 11.6 µM, the GI50 (NCI/ADR-RES ovarian) was 3.64 µM and the TGI (NCI/ADR-RES ovarian) was greater than 100 µM. It also gave a GI50 (RXF 393 renal) of 2.49 µM, a TGI (RXF 393 renal) of 8.99 µM and a GI50 (SW-620 colon) of 3.91 µM. It also gave a TGI (SW-620 colon) greater than 100 µM, a GI50 (SK-MEL-2 melanoma) of 5.35 µM and a TGI (SK-MEL-2 melanoma) of 74.8 µM. For the same molecule, the GI50 (HCT-15 colon) was 2.95 µM, the TGI (HCT-15 colon) was greater than 100 µM and the GI50 (SK-MEL-5 melanoma) was 2.88 µM. It also gave a TGI (SK-MEL-5 melanoma) greater than 100 µM, a GI50 (HOP-62 NSCLC) of 59.4 µM and a TGI (HOP-62 NSCLC) greater than 100 µM. The GI50 (SF-295 CNS) was 3.63 µM, the TGI (SF-295 CNS) was greater than 100 µM and the GI50 (SR leukemia) was 2.7 µM. For the same molecule, the TGI (SR leukemia) was greater than 100 µM, the GI50 (COLO 205 colon) was 3.5 µM and the TGI (COLO 205 colon) was greater than 100 µM. For the same molecule, the GI50 (HS 578T breast) was 3.84 µM, the TGI (HS 578T breast) was 86.8 µM and the GI50 (OVCAR-3 ovarian) was 3.43 µM. The TGI (OVCAR-3 ovarian) was 12.8 µM, the GI50 (SN12C renal) was 5.16 µM and the TGI (SN12C renal) was greater than 100 µM. For the same molecule, the GI50 (MDA-MB-231 breast) was 2.96 µM, the TGI (MDA-MB-231 breast) was 20.4 µM and the GI50 (SNB-75 CNS) was 2.8 µM. It also gave a TGI (SNB-75 CNS) of 24.6 µM, a GI50 (HL-60(TB) leukemia) of 3.07 µM and a TGI (HL-60(TB) leukemia) greater than 100 µM. The GI50 (OVCAR-8 ovarian) was 6.33 µM, the TGI (OVCAR-8 ovarian) was greater than 100 µM and the GI50 (HT29 colon) was 3.78 µM. It also gave a TGI (HT29 colon) greater than 100 µM, a GI50 (U251 CNS) of 4.62 µM and a TGI (U251 CNS) greater than 100 µM. The GI50 (TK-10 renal) was 7.25 µM, the TGI (TK-10 renal) was greater than 100 µM and the GI50 (ACHN renal) was 4.98 µM. It also gave a TGI (ACHN renal) greater than 100 µM.
